# Where two headings read alike, the source gives them in different places.
# How the values were obtained:
# [1] = tested on: human umbilical vein endothelial cells (HUVEC); test: HUVEC proliferation assay; assay type: cell-based; settings: for % inhibition @ 150 nM / inhibition at 0.15 µM: Table I screening results, 150 nM; for inhibition at 0.01 µM: 10 nM; for inhibition at 0.05 µM: 50 nM; for inhibition at 0.001 µM: 1 nM
# Summary of the method: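 Readout was MTT dye reduction (A595) after 72 h of stimulation with VEGF at 6 ng/ml final. Compound, in 0.1% DMSO final, was added 1 h before VEGF to HUVEC starved 24 h in 1% FBS. % inhibition was scaled between VEGF-alone and unstimulated wells; IC50 was fitted from triplicate dose curves.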
# [2] = molecular target: T1, phosphorylated VEGF-R2Δ50 (FLVK-P) (Homo sapiens, UniProt P35968, DEL940-989/E990V); test: VEGF-R2 coupled spectrophotometric (FLVK-P) assay; assay type: biochemical; settings: for Ki: spectrophotometric assay
# T1 construct: VEGF-R2Δ50 contains residues 806-939 and 990-1171; made in house; host or cells: baculovirus/insect cells
# T1 sequence (P35968 with tags, fused parts or gaps DEL940-989/E990V limits assumed): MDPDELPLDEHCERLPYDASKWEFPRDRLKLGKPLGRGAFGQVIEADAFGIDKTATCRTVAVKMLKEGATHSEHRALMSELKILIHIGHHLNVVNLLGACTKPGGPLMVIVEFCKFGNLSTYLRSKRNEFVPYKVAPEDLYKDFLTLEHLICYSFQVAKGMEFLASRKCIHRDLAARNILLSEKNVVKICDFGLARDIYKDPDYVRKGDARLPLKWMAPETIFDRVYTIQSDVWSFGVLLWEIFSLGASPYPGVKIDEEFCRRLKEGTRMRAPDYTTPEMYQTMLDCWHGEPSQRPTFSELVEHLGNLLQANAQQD
# Text: VEGF-R2 Construct for Assay: This construct determines the ability of a test compound to inhibit tyrosine kinase activity. A construct (VEGF-R2Δ50) of the cytosolic domain of human vascular endothelial growth factor receptor 2 (VEGF-R2) lacking the 50 central residues of the 68 residues of the kinase insert domain was expressed in a baculovirus/insect cell system. Of the 1356 residues of full-length VEGF-R2, VEGF-R2Δ50 contains residues 806-939 and 990-1171, and also one point mutation (E990V) within the kinase insert domain relative to wild-type VEGF-R2. Autophosphorylation of the purified construct was performed by incubation of the enzyme at a concentration of 4 μM in the presence of 3 mM ATP and 40 mM MgCl2 in 100 mM Hepes, pH 7.5, containing 5% glycerol and 5 mM DTT, at 4° C. for 2 h. […] See Parast et al., Biochemistry, 37, 16788-16801 (1998).
# Coupled Spectrophotometric (FLVK-P) Assay
# The production of ADP from ATP that accompanies phosphoryl transfer was coupled to oxidation of NADH using phosphoenolpyruvate (PEP) and a system having pyruvate kinase (PK) and lactic dehydrogenase (LDH). The oxidation of NADH was monitored by following the decrease of absorbance at 340 nm (e340=6.22 cm^−1 mM^−1) using a Beckman DU 650 spectrophotometer. Assay conditions for phosphorylated VEGF-R2Δ50 (indicated as FLVK-P in the tables below) were the following: 1 mM PEP; 250 μM NADH; 50 units of LDH/mL; 20 units of PK/mL; 5 mM DTT; 5.1 mM poly(E4Y1); 1 mM ATP; and 25 mM MgCl2 in 200 mM Hepes, pH 7.5. Assay conditions for unphosphorylated VEGF-R2Δ50 (indicated as FLVK in the tables) were the following: 1 mM PEP; 250 μM NADH; 50 units of LDH/mL; 20 units of PK/mL; 5 mM DTT; 20 mM poly(E4Y1); 3 mM ATP; and 60 mM MgCl2 and 2 mM MnCl2 in 200 mM Hepes, pH 7.5. Assays were initiated with 5 to 40 nM of enzyme. Ki values were determined by measuring enzyme activity in the presence of varying concentrations of test compounds. The data were analyzed using Enzyme Kinetic and Kaleidagraph software.
# [3] = crude combinatorial amide library
# [4] = Homo sapiens, HUVEC, Inhibition of HUVEC Proliferation, crude combinatorial urea library, read-out: % inhibition @ 50 nM
# [5] = Homo sapiens, HUVEC, Inhibition of HUVEC Proliferation, crude combinatorial urea library, read-out: Inhibition @ 50 nM
# [6] = Homo sapiens, HUVEC, crude combinatorial amide library
# [7] = crude combinatorial amide library, 0.15 µM
smiles,measurement,setting,value
COc1cc(Nc2nc(N)c(-c3nc(-c4cccc(NC(=O)/C=C/c5ccc6c(c5)OCO6)c4)cs3)s2)cc(OC)c1OC,% inhibition @ 150 nM,[1]; [3],0%
COc1cc(Nc2nc(N)c(-c3nc(-c4cccc(NC(=O)C(C)c5ccc(CC(C)C)cc5)c4)cs3)s2)cc(OC)c1OC (stereo not drawn),% inhibition @ 150 nM,[1]; [3],0%
COc1ccc(CC(=O)Nc2cccc(-c3csc(-c4sc(Nc5cc(OC)c(OC)c(OC)c5)nc4N)n3)c2)cc1,% inhibition @ 150 nM,[1]; [3],0%
COc1cc(Nc2nc(N)c(-c3nc(-c4cccc(NC(=O)Cn5cnc6c5c(=O)n(C)c(=O)n6C)c4)cs3)s2)cc(OC)c1OC,% inhibition @ 150 nM,[1]; [3],0%
"COc1cc(Nc2nc(N)c(C3=NC(c4ccc(Br)cc4)CO3)s2)cc(OC)c1OC (racemic) [I(12), (R/S)-5-[4-(4-Bromo-phenyl)-4,5-dihydro-oxazol-2-yl]-N^2-(3,4,5-trimethoxy-phenyl)-thiazole-2,4-diamine]",FLVK-P % inhibition @ 20,"[2]; Table 2, at 20 (head μM)",71% @
"COCOc1cccc(-c2noc(-c3sc(Nc4cc(OC)c(OC)c(OC)c4)nc3N)n2)c1 [B(4), 5-[3-(3-Methoxymethoxy-phenyl)-[1,2,4]oxadiazol-5-yl]-N^2-(3,4,5-trimethoxy-phenyl)-thiazole-2,4-diamine]",Ki,[2]; Table 2,200 nM
CC(C)(C)OC(=O)Nc1cccc(-c2noc(-c3sc(Nc4cccc(C#N)c4)nc3N)n2)c1 [B(40)],inhibition at 1 µM,"[2]; Table 3, at 1 μM",31%
"COc1cc(Nc2nc(N)c(-c3nc(-c4cccc(NC(C)=O)c4)cs3)s2)cc(OC)c1OC [D(1), N-{3-[4′-Amino-2′-(3,4,5-trimethoxy-phenylamino)-[2,5′]bithiazolyl-4-yl]-phenyl}acetamide]",Ki,[2]; Table 1,46 nM
"COc1cc(Nc2nc(N)c(-c3nc(-c4cccc(NS(=O)(=O)Cc5ccccc5)c4)cs3)s2)cc(OC)c1OC [D(2), N-{3-[4′-Amino-2′-(3,4,5-trimethoxy-phenylamino)-[2,5′]bithiazolyl-4-yl]-phenyl}-C-phenyl-methanesulfonamide]",Ki,[2]; Table 1,98 nM
"COc1cccc(C(=O)Nc2cc(-c3csc(-c4sc(NC(=O)NCc5ccccc5)nc4N)n3)c(F)cc2F)c1 [O(13), N-{5-[4′-Amino-2′-(3-benzyl-ureido)-[2,5′]bithiazolyl-4-yl]-2,4-difluoro-phenyl}-3-methoxy-benzamide]",IC50,"[1]; Homo sapiens, HUVEC, Table 3",140 nM
CNC(=O)Nc1nc(N)c(-c2nc(-c3cccc(NC(=O)c4cccc(OC)c4)c3)cs2)s1 [drawing 606],inhibition at 0.01 µM,"[1]; Homo sapiens, HUVEC, crude combinatorial urea library, read-out: Inhibition of HUVEC Proliferation % inhibition @ 10 nM",15%
same,inhibition at 0.05 µM,"[1]; Homo sapiens, HUVEC, crude combinatorial urea library, read-out: Inhibition of HUVEC Proliferation % inhibition @ 50 nM",115%
COc1cccc(C(=O)Nc2cc(-c3csc(-c4sc(NC(=O)NCCCN5CCCC5=O)nc4N)n3)c(F)cc2F)c1 [drawing 675],inhibition at 0.05 µM,[1]; [4],105%
COc1cccc(C(=O)Nc2cc(-c3csc(-c4sc(NC(=O)NCc5ccccc5)nc4N)n3)c(F)cc2F)c1 [drawing 678],inhibition at 0.05 µM,[1]; [4],93%
COc1cccc(C(=O)Nc2cc(-c3csc(-c4sc(NC(=O)NCCOCCO)nc4N)n3)c(F)cc2F)c1 [drawing 699],inhibition at 0.05 µM,[1]; [4],98%
COc1cccc(C(=O)Nc2cc(-c3csc(-c4sc(NC(=O)NCCN5CCOCC5)nc4N)n3)c(F)cc2F)c1 [drawing 700],inhibition at 0.05 µM,[1]; [4],96%
COc1cccc(C(=O)Nc2cc(-c3csc(-c4sc(NC(=O)NCCN5CCCC5)nc4N)n3)c(F)cc2F)c1 [drawing 703],inhibition at 0.05 µM,[1]; [4],93%
COCC(C)NC(=O)Nc1nc(N)c(-c2nc(-c3cc(NC(=O)c4cccc(OC)c4)c(F)cc3F)cs2)s1 (stereo not drawn) [drawing 704],inhibition at 0.05 µM,[1]; [4],93%
COc1cccc(C(=O)Nc2cc(-c3csc(-c4sc(NC(=O)NCc5ccccn5)nc4N)n3)c(F)cc2F)c1 [drawing 705],inhibition at 0.05 µM,[1]; [4],118%
COc1cccc(C(=O)Nc2cc(-c3csc(-c4sc(NC(=O)NCCc5ccncc5)nc4N)n3)c(F)cc2F)c1 [drawing 753],inhibition at 0.05 µM,[1]; [4],98%
COc1cccc(C(=O)Nc2cc(-c3noc(-c4sc(NC(=O)NCC5CCCO5)nc4N)n3)c(F)cc2F)c1 (stereo not drawn) [drawing 762],inhibition at 0.05 µM,[1]; [5],107%
COc1cccc(C(=O)Nc2cc(-c3noc(-c4sc(NC(=O)NCCCN5CCCC5=O)nc4N)n3)c(F)cc2F)c1 [drawing 763],inhibition at 0.05 µM,[1]; [5],106%
COc1cccc(C(=O)Nc2cc(-c3noc(-c4sc(NC(=O)N[C@H]5CC[C@H](O)CC5)nc4N)n3)c(F)cc2F)c1 [drawing 770],inhibition at 0.05 µM,[1]; [5],92%
CNC(=O)Nc1nc(N)c(-c2nc(-c3cc(NC(=O)c4cccc(OC)c4)c(F)cc3F)no2)s1 [drawing 782],inhibition at 0.05 µM,[1]; [5],105%
COc1cccc(C(=O)Nc2cc(-c3noc(-c4sc(NC(=O)NCCOCCO)nc4N)n3)c(F)cc2F)c1 [drawing 787],inhibition at 0.05 µM,[1]; [5],98%
COc1cccc(C(=O)Nc2cc(-c3noc(-c4sc(NC(=O)NCCN5CCOCC5)nc4N)n3)c(F)cc2F)c1 [drawing 788],inhibition at 0.05 µM,[1]; [5],106%
COc1cccc(C(=O)Nc2cc(-c3noc(-c4sc(NC(=O)NCC(N)=O)nc4N)n3)c(F)cc2F)c1 [drawing 803],inhibition at 0.05 µM,[1]; [5],30%
COc1cccc(C(=O)Nc2cc(-c3noc(-c4sc(NC(=O)NCC(C)C)nc4N)n3)c(F)cc2F)c1 [drawing 804],inhibition at 0.05 µM,[1]; [5],20%
COc1cccc(C(=O)Nc2cc(-c3noc(-c4sc(NC(=O)NCCO)nc4N)n3)c(F)cc2F)c1 [drawing 806],inhibition at 0.05 µM,[1]; [5],19%
COc1cc(Nc2nc(N)c(-c3nc(-c4cccc(NC(=O)c5cc6ccccc6o5)c4)cs3)s2)cc(OC)c1OC [drawing 844],inhibition at 0.15 µM,[1]; [6],40%
COc1cc(Nc2nc(N)c(-c3nc(-c4cccc(NC(=O)c5ccccc5)c4)cs3)s2)cc(OC)c1OC [drawing 845],inhibition at 0.15 µM,[1]; [6],33%
COc1cc(Nc2nc(N)c(-c3nc(-c4cccc(NC(=O)COc5ccccc5)c4)cs3)s2)cc(OC)c1OC [drawing 868],inhibition at 0.15 µM,[1]; [6],10%
COc1cc(Nc2nc(N)c(-c3nc(-c4cccc(NC(=O)CCc5ccccc5)c4)cs3)s2)cc(OC)c1OC [drawing 884],inhibition at 0.15 µM,[1]; [6],4%
COc1cc(Nc2nc(N)c(-c3nc(-c4cccc(NC(=O)c5sc(C)nc5C)c4)cs3)s2)cc(OC)c1OC [drawing 894],inhibition at 0.15 µM,[1]; [6],19%
COc1cc(Nc2nc(N)c(-c3nc(-c4cccc(NC(=O)c5cnc6ccccc6c5)c4)cs3)s2)cc(OC)c1OC [drawing 896],inhibition at 0.15 µM,[1]; [6],42%
COc1cc(Nc2nc(N)c(-c3nc(-c4cccc(NC(=O)c5ncoc5-c5ccccc5)c4)cs3)s2)cc(OC)c1OC [drawing 897],inhibition at 0.15 µM,[1]; [6],64%
COc1cc(Nc2nc(N)c(-c3nc(-c4cccc(NC(=O)c5ccc(C)s5)c4)cs3)s2)cc(OC)c1OC [drawing 916],inhibition at 0.15 µM,[1]; [6],32%
COc1cc(Nc2nc(N)c(-c3nc(-c4cccc(NC(=O)c5ccc(Br)o5)c4)cs3)s2)cc(OC)c1OC [drawing 929],inhibition at 0.15 µM,[1]; [6],34%
COc1cc(Nc2nc(N)c(-c3nc(-c4cccc(NC(=O)c5ccc(C(C)C)cc5)c4)cs3)s2)cc(OC)c1OC [drawing 943],% inhibition @ 150 nM,[1]; [7],6%
COc1cccc(C(=O)Nc2cccc(-c3csc(-c4sc(Nc5cc(OC)c(OC)c(OC)c5)nc4N)n3)c2)c1 [drawing 999],inhibition at 0.15 µM,[1]; [6],108%
COc1cc(Nc2nc(N)c(-c3nc(-c4cccc(NC(=O)c5ccc(C(C)C)cc5)c4)cs3)s2)cc(OC)c1OC [drawing 1003],% inhibition @ 150 nM,[1]; [7],17%
CNC(=O)Nc1nc(N)c(-c2nc(-c3cccc(NC(=O)c4cccc(OC)c4)c3)cs2)s1 [drawing 1034],inhibition at 0.001 µM,"[1]; Homo sapiens, HUVEC, Table II screening results, crude combinatorial amide library",2%
same,inhibition at 0.01 µM,"[1]; Homo sapiens, HUVEC, Table II screening results, crude combinatorial amide library, read-out: % inhibition @ 10 nM",91%
COc1cccc(C(=O)Nc2ccc(C)c(-c3noc(-c4sc(Nc5cc(OC)c(OC)c(OC)c5)nc4N)n3)c2)c1 [drawing 1122],inhibition at 0.001 µM,"[1]; Homo sapiens, HUVEC, table following Table II (untitled), crude combinatorial library",35%
same,inhibition at 0.01 µM,"[1]; Homo sapiens, HUVEC, table following Table II (untitled), crude combinatorial library, read-out: % inhibition @ 10 nM",94%

# — patent US6620828B2, “Thiazole compounds and pharmaceutical compositions for inhibiting protein kinases and methods for their use” (Agouron Pharmaceuticals, Inc., priority 1999, dated 2003)
